The results in this text go back to ChEMBL document CHEMBL3044539, “Fungichromin: a substance from Streptomyces padanus with inhibitory effects on Rhizoctonia solani” (2003).

Broadly, the MIC is the smallest concentration in the dilution series that meets the test's criterion for growth inhibition.

The subject of test [1] is Rhizoctonia solani. The experiment in a line: Antifungal activity against Rhizoctonia solani AG-4 RST-04 assessed as mycelial growth inhibition after 2 days. Format: functional. As to conditions: AG-4 RST-04, 48 h.
Test [2] deals with Rhizoctonia solani. In words: Antifungal activity against Rhizoctonia solani AG-4 RST-04 assessed as mycelial growth inhibition at 80 to 120 ug/ml after 2 days. In kind it is functional, organism-based.

Converted amounts (≈) assume the structure as drawn. The source made the active and inactive calls.

With `CCCCC[C@@H](O)[C@H]1C(=O)O[C@H](C)[C@@H](O)/C=C/C=C/C=C/C=C/C=C(\C)[C@@H](O)[C@H](O)[C@H](O)C[C@H](O)C[C@H](O)C[C@H](O)C[C@H](O)C[C@@H]1O` [PENTAMYCIN], the MIC in the test with Rhizoctonia solani [1] was determined as 72 µg/mL (≈ 107 µM). The “growth inhibition (GI)” value in the test on Rhizoctonia solani [2] is “Active”.
